According to patent US20170050957A1, “4-AMINO-6-(HETEROCYCLIC)PICOLINATES AND 6-AMINO-2-(HETEROCYCLIC)PYRIMIDINE-4-CARBOXYLATES AND THEIR USE AS HERBICIDES” (Dow AgroSciences LLC, priority 2013, published 2017):
Read-outs that look alike come from different tables or passages of the source.

Experiments:
[1] = tested on: Key Grass and Sedge Weeds as well as Grass Crops; assay: Post-emergent Test II herbicidal activity (Table 16); format: in vivo; settings: post-emergence, 336 h, 14 d; for pest or weed control at 35 g/ha: 35 g ai/ha; for pest or weed control at 70 g/ha: 70 g ai/ha; for pest or weed control at 140 g/ha: 140 g ai/ha
Procedure, shortened: (§1)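 Herbicidal effect scored as percent visual injury, 14 d after post-emergent application. Spray solutions contained acetone, DMSO, isopropyl alcohol, crop oil concentrate and surfactant, applied at 187 L/ha to young plants (1-2 true leaves).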

[2] = tested on: Key Broadleaf Weed and Crop Species; assay: Post-emergent Test II herbicidal activity (Table 15); format: in vivo; settings: post-emergence, 336 h, 14 d; for pest or weed control at 35 g/ha: 35 g ai/ha; for pest or weed control at 70 g/ha: 70 g ai/ha; for pest or weed control at 140 g/ha: 140 g ai/ha
Procedure, shortened: as §1

[3] = Cyperus esculentus, yellow nutsedge (Cyperus esculentus), read-out: Visual Growth Reduction (%) 14 Days After Application, CYPES
[4] = Echinochloa crus-galli, barnyardgrass (Echinochloa crus-galli), read-out: Visual Growth Reduction (%) 14 Days After Application, ECHCG
[5] = Oryza sativa, rice (Oryza sativa), read-out: Visual Growth Reduction (%) 14 Days After Application, ORYSA
[6] = Setaria faberi, giant foxtail (Setaria faberi), read-out: Visual Growth Reduction (%) 14 Days After Application, SETFA
[7] = Triticum aestivum, wheat, spring (Triticum aestivum), read-out: Visual Growth Reduction (%) 14 Days After Application, TRZAS
[8] = Zea mays, maize, corn (Zea mays), read-out: Visual Growth Reduction (%) 14 Days After Application, ZEAMX
[9] = Abutilon theophrasti, velvetleaf (Abutilon theophrasti), read-out: Visual Growth Reduction (%) 14 Days After Application, ABUTH
[10] = Amaranthus retroflexus, redroot pigweed (Amaranthus retroflexus), read-out: Visual Growth Reduction (%) 14 Days After Application, AMARE
[11] = Brassica napus, oilseed rape, canola (Brassica napus), read-out: Visual Growth Reduction (%) 14 Days After Application, BRSNN
[12] = Chenopodium album, lambsquarters (Chenopodium album), read-out: Visual Growth Reduction (%) 14 Days After Application, CHEAL
[13] = Euphorbia heterophylla, wild poinsettia (Euphorbia heterophylla), read-out: Visual Growth Reduction (%) 14 Days After Application, EPHHL
[14] = Helianthus annuus, sunflower (Helianthus annuus), read-out: Visual Growth Reduction (%) 14 Days After Application, HELAN

**Q.** With `Nc1c(Cl)c(C(=O)O)nc(-c2ccc3sccc3c2)c1Cl` [Compound 3.02, 4-Amino-6-(benzo[b]thiophen-5-yl)-3,5-dichloropicolinic acid] as the compound, how does the pest or weed control at 35 g/ha [1, 3] read?
**A.** 0 to 29%

**Q.** What about the pest or weed control at 70 g/ha [1, 3] of the same compound?
**A.** 0 to 29%

**Q.** What about the pest or weed control at 140 g/ha [1, 3] of the same compound?
**A.** 0 to 29%

**Q.** What about the pest or weed control at 35 g/ha [1, 4] of the same compound?
**A.** 0 to 29%

**Q.** What about the pest or weed control at 70 g/ha [1, 4] of the same compound?
**A.** 0 to 29%

**Q.** What about the pest or weed control at 140 g/ha [1, 4] of the same compound?
**A.** 0 to 29%

**Q.** What about the pest or weed control at 35 g/ha [1, 5] of the same compound?
**A.** 0 to 29%

**Q.** What about the pest or weed control at 70 g/ha [1, 5] of the same compound?
**A.** 0 to 29%

**Q.** What about the pest or weed control at 140 g/ha [1, 5] of the same compound?
**A.** 0 to 29%

**Q.** What about the pest or weed control at 35 g/ha [1, 6] of the same compound?
**A.** 0 to 29%

**Q.** What about the pest or weed control at 70 g/ha [1, 6] of the same compound?
**A.** 0 to 29%

**Q.** And the pest or weed control at 140 g/ha [1, 6]?
**A.** 0 to 29%

**Q.** What about the pest or weed control at 35 g/ha [1, 7] of the same compound?
**A.** 0 to 29%

**Q.** And the pest or weed control at 70 g/ha [1, 7]?
**A.** 0 to 29%

**Q.** What about the pest or weed control at 140 g/ha [1, 7] of the same compound?
**A.** 0 to 29%

**Q.** And the pest or weed control at 35 g/ha [1, 8]?
**A.** 0 to 29%

**Q.** What about the pest or weed control at 70 g/ha [1, 8] of the same compound?
**A.** 60 to 74%

**Q.** What about the pest or weed control at 140 g/ha [1, 8] of the same compound?
**A.** 60 to 74%

**Q.** And the pest or weed control at 35 g/ha [2, 9]?
**A.** 0 to 29%

**Q.** And the pest or weed control at 70 g/ha [2, 9]?
**A.** 0 to 29%

**Q.** And the pest or weed control at 140 g/ha [2, 9]?
**A.** 0 to 29%

**Q.** And the pest or weed control at 35 g/ha [2, 10]?
**A.** 95 to 100%

**Q.** And the pest or weed control at 70 g/ha [2, 10]?
**A.** 95 to 100%

**Q.** And the pest or weed control at 140 g/ha [2, 10]?
**A.** 95 to 100%

**Q.** And the pest or weed control at 35 g/ha [2, 11]?
**A.** 0 to 29%

**Q.** And the pest or weed control at 70 g/ha [2, 11]?
**A.** 0 to 29%

**Q.** And the pest or weed control at 140 g/ha [2, 11]?
**A.** 0 to 29%

**Q.** What about the pest or weed control at 35 g/ha [2, 12] of the same compound?
**A.** 85 to 94%

**Q.** And the pest or weed control at 70 g/ha [2, 12]?
**A.** 85 to 94%

**Q.** What about the pest or weed control at 140 g/ha [2, 12] of the same compound?
**A.** 85 to 94%

**Q.** What about the pest or weed control at 35 g/ha [2, 13] of the same compound?
**A.** 0 to 29%

**Q.** What about the pest or weed control at 70 g/ha [2, 13] of the same compound?
**A.** 0 to 29%

**Q.** What about the pest or weed control at 140 g/ha [2, 13] of the same compound?
**A.** 0 to 29%

**Q.** What about the pest or weed control at 35 g/ha [2, 14] of the same compound?
**A.** 60 to 74%

**Q.** What about the pest or weed control at 70 g/ha [2, 14] of the same compound?
**A.** 75 to 84%

**Q.** And the pest or weed control at 140 g/ha [2, 14]?
**A.** 85 to 94%

**Q.** What about the melting point of the same compound?
**A.** 157 to 159 °C

**Q.** Which results are given for `COC(=O)c1nc(-c2ccc3sccc3c2)c(Cl)c(N)c1Cl` [Compound 3.01, Methyl 4-amino-6-(benzo[b]thiophenyl-5-yl)-3,5-dichloropicolinate]?
**A.** pest or weed control at 35 g/ha [1, 3]: 0 to 29%; pest or weed control at 70 g/ha [1, 3]: 0 to 29%; pest or weed control at 140 g/ha [1, 3]: 0 to 29%; pest or weed control at 35 g/ha [1, 4]: 0 to 29%; pest or weed control at 70 g/ha [1, 4]: 0 to 29%; pest or weed control at 140 g/ha [1, 4]: 0 to 29%; pest or weed control at 35 g/ha [1, 5]: 0 to 29%; pest or weed control at 70 g/ha [1, 5]: 0 to 29%; pest or weed control at 140 g/ha [1, 5]: 0 to 29%; pest or weed control at 35 g/ha [1, 6]: 0 to 29%; pest or weed control at 70 g/ha [1, 6]: 0 to 29%; pest or weed control at 140 g/ha [1, 6]: 0 to 29%; pest or weed control at 35 g/ha [1, 7]: 0 to 29%; pest or weed control at 70 g/ha [1, 7]: 0 to 29%; pest or weed control at 140 g/ha [1, 7]: 0 to 29%; pest or weed control at 35 g/ha [1, 8]: 0 to 29%; pest or weed control at 70 g/ha [1, 8]: 45 to 59%; pest or weed control at 140 g/ha [1, 8]: 60 to 74%; pest or weed control at 35 g/ha [2, 9]: 60 to 74%; pest or weed control at 70 g/ha [2, 9]: 60 to 74%; pest or weed control at 140 g/ha [2, 9]: 75 to 84%; pest or weed control at 35 g/ha [2, 10]: 85 to 94%; pest or weed control at 70 g/ha [2, 10]: 95 to 100%; pest or weed control at 140 g/ha [2, 10]: 95 to 100%; pest or weed control at 35 g/ha [2, 11]: 0 to 29%; pest or weed control at 70 g/ha [2, 11]: 0 to 29%; pest or weed control at 140 g/ha [2, 11]: 0 to 29%; pest or weed control at 35 g/ha [2, 12]: 95 to 100%; pest or weed control at 70 g/ha [2, 12]: 95 to 100%; pest or weed control at 140 g/ha [2, 12]: 95 to 100%; pest or weed control at 35 g/ha [2, 13]: 0 to 29%; pest or weed control at 70 g/ha [2, 13]: 0 to 29%; pest or weed control at 140 g/ha [2, 13]: 0 to 29%; pest or weed control at 35 g/ha [2, 14]: 75 to 84%; pest or weed control at 70 g/ha [2, 14]: 75 to 84%; pest or weed control at 140 g/ha [2, 14]: 85 to 94%; melting point: 50 to 56 °C

**Q.** What does the source list for `Nc1nc(-c2ccc(Cl)c3occc23)nc(C(=O)O)c1Cl` [Compound 2.23]?
**A.** pest or weed control at 35 g/ha [1, 3]: 0 to 29%; pest or weed control at 70 g/ha [1, 3]: 0 to 29%; pest or weed control at 140 g/ha [1, 3]: 0 to 29%; pest or weed control at 35 g/ha [1, 4]: 0 to 29%; pest or weed control at 70 g/ha [1, 4]: 0 to 29%; pest or weed control at 140 g/ha [1, 4]: 0 to 29%; pest or weed control at 35 g/ha [1, 5]: 0 to 29%; pest or weed control at 70 g/ha [1, 5]: 0 to 29%; pest or weed control at 140 g/ha [1, 5]: 0 to 29%; pest or weed control at 35 g/ha [1, 6]: 0 to 29%; pest or weed control at 70 g/ha [1, 6]: 0 to 29%; pest or weed control at 140 g/ha [1, 6]: 0 to 29%; pest or weed control at 35 g/ha [1, 7]: 0 to 29%; pest or weed control at 70 g/ha [1, 7]: 0 to 29%; pest or weed control at 140 g/ha [1, 7]: 0 to 29%; pest or weed control at 35 g/ha [1, 8]: 0 to 29%; pest or weed control at 70 g/ha [1, 8]: 0 to 29%; pest or weed control at 140 g/ha [1, 8]: 0 to 29%; pest or weed control at 35 g/ha [2, 9]: 0 to 29%; pest or weed control at 70 g/ha [2, 9]: 0 to 29%; pest or weed control at 140 g/ha [2, 9]: 0 to 29%; pest or weed control at 35 g/ha [2, 10]: 95 to 100%; pest or weed control at 70 g/ha [2, 10]: 95 to 100%; pest or weed control at 140 g/ha [2, 10]: 95 to 100%; pest or weed control at 35 g/ha [2, 11]: 0 to 29%; pest or weed control at 70 g/ha [2, 11]: 0 to 29%; pest or weed control at 140 g/ha [2, 11]: 0 to 29%; pest or weed control at 35 g/ha [2, 12]: 95 to 100%; pest or weed control at 70 g/ha [2, 12]: 95 to 100%; pest or weed control at 140 g/ha [2, 12]: 95 to 100%; pest or weed control at 35 g/ha [2, 13]: 0 to 29%; pest or weed control at 70 g/ha [2, 13]: 0 to 29%; pest or weed control at 140 g/ha [2, 13]: 0 to 29%; pest or weed control at 35 g/ha [2, 14]: 85 to 94%; pest or weed control at 70 g/ha [2, 14]: 95 to 100%; pest or weed control at 140 g/ha [2, 14]: 95 to 100%; melting point: 173 to 174.5 °C
